Experimental data: patent US5126337A, “Thiazetoquinoline-3-carboxylic acid derivative and a pharmaceutical composition comprising the same” (priority 1989, dated 1992)
In brackets after ≈: the same amount, converted by molar mass. Structures can show the parent of a compound that is named as a salt. Where two headings read alike, the source gives them in different places.

What was measured:
[1] = test system: Escherichia coli NIHJ JC-2; test: Antibacterial spectrum, MIC by twofold agar dilution method; format: cell-based; conditions: NIHJJC2, 10^6 cfu/ml, standard laboratory strain, Gram -, 18 hrs at 37° C
Experimental: (§1) Overnight cultures in Mueller-Hinton broth were suspended by buffered saline gelatin. One loopful of the bacterial suspension (10^6 or 10^8 colony-forming units/ml) was incubated onto the plates containing test compounds. The plates were incubated for 18 hrs at 37° C. The MIC was defined by the lowest concentration of the drug that inhibited visible growth of bacteria.

[2] = test system: Klebsiella pneumoniae HNR 858; test: as above; format: cell-based; conditions: HNR858, 10^6 cfu/ml, clinically isolated strain, Gram -, 18 hrs at 37° C
Experimental: as §1

[3] = test system: Staphylococuss aureus FDA 209PJC-1; test: as above; format: cell-based; conditions: 10^6 cfu/ml; standard laboratory strain, Gram +; 18 hrs at 37° C
Experimental: as §1

[4] = test system: Klebsiella pneumoniae HNR 828; test: as above; format: cell-based; conditions: HNR828, 10^6 cfu/ml, clinically isolated strain, Gram -, 18 hrs at 37° C
Experimental: as §1

[5] = test system: Staphylococcuss aureus HPC 527; test: as above; format: cell-based; conditions: 10^6 cfu/ml; clinically isolated strain, Gram +; 18 hrs at 37° C
Experimental: as §1

[6] = test system: Enterococcus faecalis HPC 948; test: as above; format: cell-based; conditions: HPC948, 10^6 cfu/ml, clinically isolated strain, Gram +, 18 hrs at 37° C
Experimental: as §1

[7] = test system: Pseudomonas aeruginosa IFO 3445; test: as above; format: cell-based; conditions: IFO3445, 10^6 cfu/ml, standard laboratory strain, Gram -, 18 hrs at 37° C
Experimental: as §1

[8] = test system: Pseudomonas aeruginosa HNR 1537; test: as above; format: cell-based; conditions: HNR1537, 10^6 cfu/ml, clinically isolated strain, Gram -, 18 hrs at 37° C
Experimental: as §1

[9] = test system: Enterococcus faecalis HPC 975; test: as above; format: cell-based; conditions: HPC975, 10^6 cfu/ml, clinically isolated strain, Gram +, 18 hrs at 37° C
Experimental: as §1

[10] = test system: Enterococcus faecalis HPC 984; test: as above; format: cell-based; conditions: HPC984, 10^6 cfu/ml, clinically isolated strain, Gram +, 18 hrs at 37° C
Experimental: as §1

[11] = test system: Serratia marcescens HNR 1792; test: as above; format: cell-based; conditions: HNR1792, 10^6 cfu/ml, clinically isolated strain, Gram -, 18 hrs at 37° C
Experimental: as §1

[12] = test system: Pseudomonas aeruginosa HNR 1472; test: as above; format: cell-based; conditions: HNR1472, 10^6 cfu/ml, clinically isolated strain, Gram -, 18 hrs at 37° C
Experimental: as §1

[13] = test system: Serratia marcescens HNR 1544; test: as above; format: cell-based; conditions: HNR1544, 10^6 cfu/ml, clinically isolated strain, Gram -, 18 hrs at 37° C
Experimental: as §1

[14] = test system: Klebsiella pneumoniae HNR 869; test: as above; format: cell-based; conditions: HNR869, 10^6 cfu/ml, clinically isolated strain, Gram -, 18 hrs at 37° C
Experimental: as §1

[15] = test system: Acinetobacter calcoaceticus HNR 904; test: as above; format: cell-based; conditions: HNR904, 10^6 cfu/ml, clinically isolated strain, Gram -, 18 hrs at 37° C
Experimental: as §1

[16] = test system: Enterobacter cloacae HNR 1939; test: as above; format: cell-based; conditions: HNR1939, 10^6 cfu/ml, clinically isolated strain, Gram -, 18 hrs at 37° C
Experimental: as §1

[17] = test system: Acinetobacter calcoaceticus HNR 916; test: as above; format: cell-based; conditions: HNR916, 10^6 cfu/ml, clinically isolated strain, Gram -, 18 hrs at 37° C
Experimental: as §1

[18] = test system: Serratia marcescens IAM 1184; test: as above; format: cell-based; conditions: IAM1184, 10^6 cfu/ml, standard laboratory strain, Gram -, 18 hrs at 37° C
Experimental: as §1

[19] = test system: Serratia marcescens HNR 1767; test: as above; format: cell-based; conditions: HNR1767, 10^6 cfu/ml, clinically isolated strain, Gram -, 18 hrs at 37° C
Experimental: as §1

[20] = test system: Acinetobacter calcoaceticus HNR 939; test: as above; format: cell-based; conditions: HNR939, 10^6 cfu/ml, clinically isolated strain, Gram -, 18 hrs at 37° C
Experimental: as §1

Enterobacter cloacae 963 = test: as above; format: cell-based; conditions: 10^6 cfu/ml, standard laboratory strain, Gram -, 18 hrs at 37° C
Experimental: as §1

[21] = test system: Staphylococcuss aureus HPC 292; test: as above; format: cell-based; conditions: 10^6 cfu/ml; clinically isolated strain, Gram +; 18 hrs at 37° C; read-out: MIC
Experimental: as §1

[22] = test system: Pseudomonas aeruginosa HNR 1489; test: as above; format: cell-based; conditions: HNR1489, 10^6 cfu/ml, clinically isolated strain, Gram -, 18 hrs at 37° C
Experimental: as §1

[23] = test system: Enterobacter cloacae HNR 1946; test: as above; format: cell-based; conditions: HNR1946, 10^6 cfu/ml, clinically isolated strain, Gram -, 18 hrs at 37° C
Experimental: as §1

Male mice of ddY strain [24] = test: Acute toxicity (i.v.); format: in vivo; conditions: 270 mg/kg (i.v.)
Experimental: Male mice of ddY strain, 4 weeks old, were used. Test compounds were solved in 0.1N--NaOH solution and neutralized with 0.1N--HCl solution. Each compound was administered intravenously (i.v.) at a dose of 270 mg/kg. […]

Male mice of ddY strain [25] = test: Convulsion inducing activity in combination with fenbufen; conditions: 30 min after fenbufen 100 mg/kg orally
Experimental: Male mice of ddY strain, 5 weeks old, were used. Fenbufen suspended in 0.5% carboxymethyl cellulose was administered orally at a dose of 100 mg/kg. After thirty minutes, test compounds suspended in 0.5% carboxymethyl cellulose were injected intraperitoneally (i.p.) at a dose of 100 mg/kg or 300 mg/kg.

[26] = test system: Klebsiella pneumoniae PCI-602; test: Antibacterial spectrum, MIC by twofold agar dilution method; format: cell-based
Experimental: as §1, with “Minimum inhibitory concentrations (MIC) of test compounds were determined by the twofold agar dilution method (Chemotherapy, 29(1), 76(1981)). Overnight” for “Overnight”

[27] = test system: Staphylococcuss aureus HPC 308; test: as above; format: cell-based; conditions: 10^6 cfu/ml; clinically isolated strain, Gram +; 18 hrs at 37° C
Experimental: as §1

[28] = test system: Enterobacter cloacae HNR 1941; test: as above; format: cell-based; conditions: HNR1941, 10^6 cfu/ml, clinically isolated strain, Gram -, 18 hrs at 37° C
Experimental: as §1

[29] = PCI602, 10^6 cfu/ml, standard laboratory strain, Gram -, 18 hrs at 37° C, read-out: MIC

CC1Sc2c(C(=O)O)c(=O)c3cc(F)c(N4CC[C@H](N)C4)c(F)c3n21 (single isomer, unassigned) [Example 27]
MIC [1]: 0.025 µg/mL (≈ 0.068 µM)
MIC [2]: 0.2 µg/mL (≈ 0.544 µM)
MIC [3]: 0.025 µg/mL (≈ 0.068 µM)
MIC [4]: 1.56 µg/mL (≈ 4.25 µM)
MIC [5]: 0.05 µg/mL (≈ 0.136 µM)
MIC [6]: 0.78 µg/mL (≈ 2.12 µM)
MIC [7]: 0.1 µg/mL (≈ 0.272 µM)
MIC [8]: 6.25 µg/mL (≈ 17 µM)
MIC [9]: 6.25 µg/mL (≈ 17 µM)
MIC [10]: 0.2 µg/mL (≈ 0.544 µM)
MIC [11]: 1.56 µg/mL (≈ 4.25 µM)
MIC [12]: 3.13 µg/mL (≈ 8.52 µM)
MIC [13]: 0.05 µg/mL (≈ 0.136 µM)
MIC [14]: 0.78 µg/mL (≈ 2.12 µM)
MIC [15]: 25 µg/mL (≈ 68 µM)
MIC [16]: 0.2 µg/mL (≈ 0.544 µM)
MIC [17]: 0.1 µg/mL (≈ 0.272 µM)
MIC [18]: 0.05 µg/mL (≈ 0.136 µM)
MIC [19]: 6.25 µg/mL (≈ 17 µM)
MIC [20]: 1.56 µg/mL (≈ 4.25 µM)
MIC (Enterobacter cloacae 963): 0.05 µg/mL (≈ 0.136 µM)
MIC [21]: 6.25 µg/mL (≈ 17 µM)
MIC [22]: 0.1 µg/mL (≈ 0.272 µM)
MIC [23]: 0.2 µg/mL (≈ 0.544 µM)
Number of death/Number of animals (Male mice of ddY strain [24]): 4/10
Number of convulsion induced/Number of animals (Male mice of ddY strain [25]; 100 mg/kg (i.p.)): 0/6
Number of convulsion induced/Number of animals (Male mice of ddY strain [25]; 300 mg/kg (i.p.)): 0/6
MIC [26, 29]: ≤ 0.003 µg/mL

CC1Sc2c(C(=O)O)c(=O)c3cc(F)c(N4CC[C@H](N)C4)c(Cl)c3n21 (single isomer, unassigned) [Example 29]
MIC [1]: 0.025 µg/mL (≈ 0.0651 µM)
MIC [2]: 0.2 µg/mL (≈ 0.521 µM)
MIC [3]: 0.05 µg/mL (≈ 0.13 µM)
MIC [4]: 1.56 µg/mL (≈ 4.06 µM)
MIC [5]: 0.05 µg/mL (≈ 0.13 µM)
MIC [6]: 0.78 µg/mL (≈ 2.03 µM)
MIC [27]: 0.78 µg/mL (≈ 2.03 µM)
MIC [7]: 0.1 µg/mL (≈ 0.261 µM)
MIC [28]: 1.56 µg/mL (≈ 4.06 µM)
MIC [8]: 3.13 µg/mL (≈ 8.15 µM)
MIC [9]: 6.25 µg/mL (≈ 16.3 µM)
MIC [10]: 0.2 µg/mL (≈ 0.521 µM)
MIC [11]: 0.78 µg/mL (≈ 2.03 µM)
MIC [12]: 3.13 µg/mL (≈ 8.15 µM)
MIC [13]: 0.05 µg/mL (≈ 0.13 µM)
MIC [14]: 0.39 µg/mL (≈ 1.02 µM)
MIC [16]: 0.2 µg/mL (≈ 0.521 µM)
MIC [17]: 0.1 µg/mL (≈ 0.261 µM)
MIC [18]: 0.1 µg/mL (≈ 0.261 µM)
MIC [19]: 3.13 µg/mL (≈ 8.15 µM)
MIC [20]: 1.56 µg/mL (≈ 4.06 µM)
MIC (Enterobacter cloacae 963): 0.025 µg/mL (≈ 0.0651 µM)
MIC [21]: 6.25 µg/mL (≈ 16.3 µM)
MIC [22]: 0.2 µg/mL (≈ 0.521 µM)
MIC [23]: 0.2 µg/mL (≈ 0.521 µM)
Number of death/Number of animals (Male mice of ddY strain [24]): 3/10
Number of convulsion induced/Number of animals (Male mice of ddY strain [25]; 100 mg/kg (i.p.)): 0/6
Number of convulsion induced/Number of animals (Male mice of ddY strain [25]; 300 mg/kg (i.p.)): 0/6

CC1Sc2c(C(=O)O)c(=O)c3cc(F)c(N4CCC(N(C)C)C4)c(Cl)c3n21 (stereo not drawn) [Example 39, 8-Chloro-7-(3-dimethylamino-1-pyrrolidinyl)-6-fluoro-1-methyl-4-oxo-1H, 4H-[1,3]thiazeto[3,2-a]quinoline-3-carboxylic acid]
MIC [1]: 0.1 µg/mL (≈ 0.243 µM)
MIC [2]: 0.78 µg/mL (≈ 1.89 µM)
MIC [3]: 0.2 µg/mL (≈ 0.486 µM)
MIC [4]: 12.5 µg/mL (≈ 30.3 µM)
MIC [5]: 0.2 µg/mL (≈ 0.486 µM)
MIC [6]: 1.56 µg/mL (≈ 3.79 µM)
MIC [27]: 1.56 µg/mL (≈ 3.79 µM)
MIC [7]: 1.56 µg/mL (≈ 3.79 µM)
MIC [28]: 12.5 µg/mL (≈ 30.3 µM)
MIC [8]: 50 µg/mL (≈ 121 µM)
MIC [9]: 12.5 µg/mL (≈ 30.3 µM)
MIC [10]: 0.39 µg/mL (≈ 0.947 µM)
MIC [11]: 12.5 µg/mL (≈ 30.3 µM)
MIC [12]: 25 µg/mL (≈ 60.7 µM)
MIC [13]: 0.2 µg/mL (≈ 0.486 µM)
MIC [14]: 3.13 µg/mL (≈ 7.6 µM)
MIC [15]: 6.25 µg/mL (≈ 15.2 µM)
MIC [16]: 0.78 µg/mL (≈ 1.89 µM)
MIC [17]: 0.1 µg/mL (≈ 0.243 µM)
MIC [18]: 0.39 µg/mL (≈ 0.947 µM)
MIC [19]: 12.5 µg/mL (≈ 30.3 µM)
MIC [20]: 1.56 µg/mL (≈ 3.79 µM)
MIC (Enterobacter cloacae 963): 0.39 µg/mL (≈ 0.947 µM)
MIC [21]: 12.5 µg/mL (≈ 30.3 µM)
MIC [22]: 1.56 µg/mL (≈ 3.79 µM)
MIC [23]: 0.78 µg/mL (≈ 1.89 µM)
MIC [26, 29]: 0.025 µg/mL (≈ 0.0607 µM)

O=C(O)c1cn(C2CC2)c2cc(N3CCNCC3)c(F)cc2c1=O [Reference Drug A, ciprofloxacin hydrochloride, reference compound]
Number of death/Number of animals (Male mice of ddY strain [24]): 7/10
Number of convulsion induced/Number of animals (Male mice of ddY strain [25]; 100 mg/kg (i.p.)): 4/6
Number of convulsion induced/Number of animals (Male mice of ddY strain [25]; 300 mg/kg (i.p.)): 6/6
MIC ([26]; PCI602, 18 h): 0.012 µg/mL
